Holding throughout (type): functional, cell-based
The test system of test [1] is MDA-MB-231. As to the kind of experiment: Antiproliferative activity against human MDA-MB-231 cells after 48 hrs by CCK8 assay. The following applies: MDA-MB-231, 48 h. For orientation: Tetrazolium dyes change colour on reduction, which living cells bring about.
The test system of test [2] is MCF7. As to the kind of experiment: Antiproliferative activity against human MCF7 cells after 48 hrs by CCK8 assay. To be noted: MCF7, 48 h.
Test [3] has as its system HepG2. As to the kind of experiment: Antiproliferative activity against human HepG2 cells after 48 hrs by CCK8 assay. To be noted: HepG2, 48 h.
For test [4], the system named is K562. As to the kind of experiment: Antiproliferative activity against human K562 cells after 48 hrs by CCK8 assay. The following applies: K562, 48 h.
Test [5] has as its system COLO 320. The test is described as follows: Antiproliferative activity against human COLO320 cells after 48 hrs by CCK8 assay. The following applies: COLO 320, 48 h.

For 29 compounds, IC50 results are on record in ChEMBL document CHEMBL4033623, “Synthesis of xanthone derivatives and studies on the inhibition against cancer cells growth and synergistic combinations of them” (Eur J Med Chem, 2017).

On to `O=c1c2cc(O)ccc2oc2c(O)cccc12`, for which the IC50 is 43.8 µM in test [1]; 13.4 µM in test [2]; 23.8 µM in test [3]; 43.5 µM in test [4]; 53.7 µM in test [5].
`O=c1c2ccccc2oc2ccc(Cl)cc12`: the 50% inhibitory concentration (IC50) in test [1] is 69.4 µM; in test [2], greater than 200 µM; in test [3], 62 µM; in test [4], greater than 200 µM; in test [5], 96.7 µM.
Regarding `O=c1c2ccc(O)cc2oc2ccc(O)cc12`, the half-inhibitory concentration (IC50) in test [1] came to 32.4 µM; in test [2], 92.4 µM; in test [3] it was 52.2 µM; in test [4], 88.9 µM; in test [5] it was 31.5 µM.
In the case of `O=c1c2cc(O)ccc2oc2c(O)c(O)ccc12`, the IC50 is 53.1 µM in test [1]; greater than 200 µM in test [2]; greater than 200 µM in test [3]; 63.1 µM in test [4]; 83.1 µM in test [5].
For the compound `O=c1c2ccc(O)cc2oc2ccc(Cl)cc12`, the IC50 in test [1] stood at 45.6 µM; in test [2], 41.2 µM; in test [3], 43.7 µM; in test [4], 45.1 µM; in test [5] it was 55.1 µM.
`COc1cc(OC)c2c(=O)c3c(O)cccc3oc2c1`: the IC50 in test [1] amounted to 25.9 µM; in test [2], 21.1 µM; in test [3] it was 83.8 µM; in test [4], 25.1 µM; in test [5] it was 25.9 µM.
Turning to `O=c1c2cc(O)c(O)cc2oc2cccc(O)c12`, the 50% inhibitory concentration (IC50) in test [1] was 65.9 µM; in test [2], 101 µM; in test [3], 83.8 µM; in test [4], 156 µM; in test [5], 85.1 µM.
On to `O=c1c2ccccc2oc2cc(O)ccc12`, for which the IC50 is 93 µM in test [1]; 121 µM in test [2]; 85.3 µM in test [3]; greater than 200 µM in test [4]; greater than 200 µM in test [5].
As to `O=c1c2ccc(O)cc2oc2cc(O)cc(O)c12`, the IC50 worked out at 55.6 µM in test [1]; 112 µM in test [2]; 124 µM in test [3]; 55.6 µM in test [4]; 105 µM in test [5].
In the case of `O=c1c2cc(O)ccc2oc2ccc(O)cc12` [EUXANTHONE], the IC50 is 83.5 µM in test [1]; 128 µM in test [2]; greater than 200 µM in test [3]; 73.5 µM in test [4]; 91.2 µM in test [5].
In the case of `O=c1c2cc(Cl)ccc2oc2cccc(O)c12`, the IC50 in test [1] is 67.1 µM; in test [2] it was 53.1 µM; in test [3] it was greater than 200 µM; in test [4] it was 62 µM; in test [5], greater than 200 µM.
In the case of `COc1cc(OC)c2c(=O)c3cc(Cl)ccc3oc2c1`, the concentration for half-maximal inhibition (IC50) in test [1] came out at 11.4 µM; in test [2], 21.4 µM; in test [3], 31.2 µM; in test [4], 19.4 µM; in test [5] it was 11.5 µM.
As to `O=c1c2cc(O)ccc2oc2cc(O)cc(O)c12`, the half-inhibitory concentration (IC50) is 25.1 µM in test [1]; 31.2 µM in test [2]; greater than 200 µM in test [3]; 106 µM in test [4]; greater than 200 µM in test [5].
With `O=c1c2cc(Br)ccc2oc2c(O)cccc12`, the IC50 in test [1] is 12.5 µM; in test [2], 22.9 µM; in test [3] it was 82.6 µM; in test [4] it was greater than 200 µM; in test [5] it was 102 µM.
`O=c1c2ccccc2oc2c(O)c(O)ccc12` [3,4-DIHYDROXYXANTHONE]: the IC50 in test [1] was 124 µM; in test [2], 93.2 µM; in test [3], 89.7 µM; in test [4] it was 103 µM; in test [5], 73 µM.
As for `O=c1c2cc(O)ccc2oc2cc(O)c(O)cc12`, the IC50 in test [1] amounted to 23.5 µM; in test [2], 28.1 µM; in test [3] it was 63.3 µM; in test [4], 73.5 µM; in test [5], 93.2 µM.
Turning to `O=c1c2ccc(O)cc2oc2c(O)c(O)ccc12`, the 50% inhibitory concentration (IC50) in test [1] came out at 87.3 µM; in test [2], 43.7 µM; in test [3], 87.3 µM; in test [4], 82.3 µM; in test [5], 77.3 µM.
Turning to `O=c1c2c(O)cccc2oc2cc(O)cc(O)c12`, the half-maximal inhibitory concentration (IC50) worked out at 33 µM in test [1]; 31.6 µM in test [2]; 55.3 µM in test [3]; 60.1 µM in test [4]; 36.4 µM in test [5].
For the compound `O=c1c2ccccc2oc2cc(O)cc(O)c12`, the 50% inhibitory concentration (IC50) in test [1] was found to be 11.6 µM; in test [2], 11.2 µM; in test [3], 11.7 µM; in test [4], 45.1 µM; in test [5], 15.1 µM.
As to `Cc1ccc2c(=O)c3cccc(O)c3oc2c1`, the IC50 in test [1] turned out to be 43.8 µM; in test [2] it was 83.4 µM; in test [3], 93.8 µM; in test [4], 93.5 µM; in test [5], 53.7 µM.
For the compound `O=c1c2ccc(O)cc2oc2c(O)cccc12`, the IC50 in test [1] came out at 95.6 µM; in test [2] it was 41.9 µM; in test [3] it was 23.7 µM; in test [4], 45.1 µM; in test [5], 55.1 µM.
As for `O=c1c2cc(Cl)ccc2oc2c(O)cccc12`, the 50% inhibitory concentration (IC50) in test [1] is 57.1 µM; in test [2], 13 µM; in test [3], 37.3 µM; in test [4], 52.1 µM; in test [5], 87.5 µM.
In the same order, the values of `COc1ccc2c(=O)c3cc(O)ccc3oc2c1` are greater than 200 µM, 23.4 µM, greater than 200 µM, greater than 200 µM and 93.7 µM.
With `O=c1c2ccc(O)cc2oc2cc(O)ccc12`, the IC50 came to 31.7 µM in test [1]; 91.3 µM in test [2]; 61.7 µM in test [3]; 31.2 µM in test [4]; 37.7 µM in test [5].
Turning to `COc1cc(O)c2c(=O)c3c(OC)cccc3oc2c1`, the IC50 in test [1] was 34.7 µM; in test [2], 34.3 µM; in test [3] it was 32.7 µM; in test [4], 34.2 µM; in test [5], 35.7 µM.
In the case of `COc1cc(OC)c2c(=O)c3cc(Br)ccc3oc2c1`, the 50% inhibitory concentration (IC50) in test [1] was 87.1 µM; in test [2] it was 43.1 µM; in test [3], 87.1 µM; in test [4], 52.1 µM; in test [5], 77.1 µM.
Turning to `O=c1c2cc(O)c(O)cc2oc2cc(O)cc(O)c12`, the IC50 in test [1] turned out to be 23.6 µM; in test [2], 43.2 µM; in test [3], 23.7 µM; in test [4], 13.1 µM; in test [5], 23 µM.
As to `O=c1c2cc(Br)ccc2oc2c(O)c(O)ccc12`, the 50% inhibitory concentration (IC50) in test [1] is 83.2 µM; in test [2] it was 104 µM; in test [3], 63.8 µM; in test [4] it was 53.5 µM; in test [5], 63.1 µM.
For `O=c1c2cccc(O)c2oc2cc(O)cc(O)c12` the same measures were 23.8 µM, 23.4 µM, 33.8 µM, 28.5 µM and 23.7 µM.

In general, IC50 refers to the concentration needed to halve the response being measured.
